# System: P. falciparum K1 (CQ-resistant strain)
# Assay: Antimalarial activity, chloroquine-resistant strain K1
# Format: cell-based, Plasmodium falciparum
row,Compound,antimalarial activity against strain K1 (in words)
1,"COc1ccc(F)cc1CNCCCNc1ccnc2cc(Oc3ccccc3)ccc12 [3{1,1,4}]",enhanced potency in strain K1
2,"COc1cccc(Oc2ccc3c(NCCCNCc4cc(F)ccc4OC)ccnc3c2)c1 [3{1,3,4}]",enhanced potency in strain K1
3,"COc1ccc(F)cc1CNCCCNc1ccnc2cc(Oc3ccc(F)cc3)ccc12 [3{1,5,4}]",enhanced potency in strain K1

# — PMC3697074 (Journal of medicinal chemistry, 2011)
